This is an account of results in patent US11278525B1, “Further molecules, compositions and methods for modulation of SIRT6” (SirTLab Corporation, priority 2017, dated 2022).

The target in this assay is SIRT6 (Homo sapiens, UniProt Q8N6T7). In words: SIRT6 enzymatic activity assay with fluorophore (AMC)-labeled Lysin-myristoylated histone H3 peptide (de-myristoylation, trypsin release). Format: biochemical. Also on record: six-histidine tag; made in house; host or cells: Escherichia coli BL21. The settings on record: for % Activity: amount tested 20 uM, Example 5, Table 9; for % activity Max. conc. 100 uM: compound 100 uM; for % activity Max. conc. 100 uM / % activity 20 uM: percentage of signal increase relative to control wells, Tables 1-2; for % activity 20 uM: compound 20 uM. The method, then: Human recombinant SIRT6 (sequence identifier: CAG33481.1; GI:4814651) was expressed in large scale in Escherichia coli strain BL21 as a six-histidine-tagged protein, after transformation of the expression plasmid pET28-SIRT6. The SIRT6 enzyme was purified from the bacteria culture broth in a two-step strategy. The first purification step was carried out by cation exchange chromatography on a HiTrap CM-Sepharose column (GE Healthcare) using an FPLC system. The second purification step was performed by immobilized metal ion affinity chromatography (IMAC) using a cobalt affinity column (Clontech).
Sequence of SIRT6 (Q8N6T7 whole entry): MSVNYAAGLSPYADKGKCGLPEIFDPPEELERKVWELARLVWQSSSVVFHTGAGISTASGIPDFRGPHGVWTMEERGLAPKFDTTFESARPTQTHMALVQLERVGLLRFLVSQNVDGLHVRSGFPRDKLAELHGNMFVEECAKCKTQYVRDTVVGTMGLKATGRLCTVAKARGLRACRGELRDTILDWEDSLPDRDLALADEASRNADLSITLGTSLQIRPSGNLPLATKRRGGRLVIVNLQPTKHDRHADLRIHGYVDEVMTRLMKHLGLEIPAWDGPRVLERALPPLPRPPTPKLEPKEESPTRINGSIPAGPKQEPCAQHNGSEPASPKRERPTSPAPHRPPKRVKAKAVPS
The enzymatic activity assay is carried out in 96 or 384-well microplates using the purified recombinant SIRT6 and a fluorophore-labeled peptide substrate: 7-amino-4-methylcoumarin (AMC) that is quenched through conjugation to the C-terminal end of a Lysin-myristoylated histone H3 peptide. The activity assay procedure requires two steps, both performed in the same microplate. In the first step, the substrate is incubated with the purified SIRT6 protein along with the co-substrate nicotinamide adenine dinucleotide (NAD+). Upon de-myristoylation, the liberated ε-amino group of the lysine becomes a trypsin substrate. Treatment with trypsin in the second step releases the fluorophore resulting in an increase in fluorescence. Fluorescence intensity is measured using a fluorescent plate reader (excitation and emission at 370 nm and 450 nm, respectively). The fluorescence signal is directly proportional to SIRT6 enzymatic activity.
In the primary screening, compounds from a library (ChemDiv Inc.) were tested at a single concentration of 20 micromolar for their potential to modulate SIRT6 enzymatic activity. The assay was carried out in 384-well black well plates and all liquid handling was done using a robotic liquid handler. Purified recombinant SIRT6 (1 micromolar) was pre-incubated with each compound (or DMSO in control wells) for 15 minutes at room temperature. The first stage of the assay was initiated by adding a ‘substrate solution’ containing the myristoylated histone H3 peptide and NAD+(for final concentrations of 25 micromolar and 20 micromolar, respectively). After one hour incubation at 37° C., a Trypsin solution (6 mg/mL) was added for 30 minutes at room temperature. Fluorescence intensity was measured using a fluorescent plate reader (Tecan) with excitation at 370 nm and emission at 450 nm. The effect of each tested compound was evaluated by the change in the fluorescence intensity compared to control wells. […] To validate the primary screening results, each of the primary “hits” was re-tested, first at concentration of 20 micromolar in duplicates and later at a serial dilution ranging from 100 to 0.2 micromolar in triplicates.
Results of Assay—The results of the assay are given below in Tables 1-3.
Additional molecules were tested according to the methods and materials of Example 1. The amount tested was 20 uM for each molecule.

Regarding `CCCc1ccc(-c2ccc(C(=O)Nc3nc4ccc(C)cc4s3)cc2)nc1` [0703-6407], the “% Activity” value is listed as 40%.
On to `CCCCCCOc1ccc(C(=O)Nc2nc3ccc(OC)cc3s2)cc1` [0938-8060], for which the “% Activity” value worked out at 47%.
Consider `CCCc1cc2c(=O)c(-c3ccc4c(c3)OCO4)coc2cc1OC(C)=O` [2188-3841], for which the “% Activity” value was 21%.
Still for that read-out and setting: as for `CC(=O)Oc1ccc2c(C)c(Cc3ccccc3)c(=O)oc2c1C` [2259-4062], the figure is 137%.
On the same count and under the same terms, as for `CCC(=O)Oc1ccc2c(C)c(Cc3ccccc3)c(=O)oc2c1C` [2259-4063], the figure is 273%; as for `COc1ccc(C(=O)Oc2ccc3c4c(c(=O)oc3c2)CCC4)cc1` [2712-3502], 264%; as for `O=C(Oc1ccc2c3c(c(=O)oc2c1)CCC3)c1cccs1` [2712-4058], 455%.
On the same count and under the same terms, the value for `COc1cc(C(=O)Oc2ccc3c4c(c(=O)oc3c2)CCC4)cc(OC)c1OC` [2712-4061] was 52%; that for `Cc1ccccc1C(=O)Oc1ccc2c3c(c(=O)oc2c1)CCC3` [2712-4063] was 61%.
As to `COc1ccc(C(=O)Oc2ccc3c4c(c(=O)oc3c2)CCC4)cc1OC` [2712-4069], the “% Activity” value is 294%.
As for `CC(=O)Oc1ccc2c3c(c(=O)oc2c1C)CCCC3` [3330-4541], the “% Activity” value is on record as 105%.
As to `Cc1ccc(COc2ccc3c4c(c(=O)oc3c2C)CCC4)cc1` [3338-2074], the “% Activity” value came to 21%.
Regarding `COc1cc(OC)cc(C(=O)Nc2nc3c(cc4c5c(cccc53)CC4)s2)c1` [3343-0231], the “% Activity” value is on record as 24%.
For `COC(=O)COc1cccc2c1ccc1c3c(c(=O)oc12)CCCC3` [3532-0820], the “% Activity” value turned out to be 30%.
On the same count and under the same terms, the value for `CC(=O)Oc1ccc(C(=O)Nc2nc3c(C)cc(C)cc3s2)cc1` [3659-2007] was 27%.
On to `C=C(Cc1ccc2c(c1)C(C)=CC(C)(C)N2)Cc1cccc2ccccc12` [4477-0762], for which the “% activity Max. conc. 100 uM” value came out at 56%.
With `CC1=CC(C)(C)Nc2ccc(OC(=O)c3cccs3)cc21` [4477-2607], the “% activity Max. conc. 100 uM” value is 54%.
`Cc1ccnc(NC(c2ccc(Cl)cc2Cl)c2ccc3cccnc3c2O)c1` (stereo not shown) [4896-3248]: the “% activity 20 uM” value was determined as 30% and the “% activity Max. conc. 100 uM” value came out at 28%.
Turning to `Cc1c(OC(=O)c2ccccc2)ccc2c3c(c(=O)oc12)CCC3` [4986-0081], the “% Activity” value is listed as 41%.
Same read-out and setting: the value for `Cc1nc2cc(-c3ccccc3)nn2c(C(C)(C)C)c1C` [5197-0134] was 21%.
As to `Cn1c(-c2ccc3[nH]c(-c4ccc(N)cc4)nc3c2)nc2cc(N)ccc21` [6843-3168], the “% activity Max. conc. 100 uM” value turned out to be 162%.
As for `O=C(C1=CC=CC1)n1nc(-c2ccccc2)nc1NCc1ccco1` [6855-0211], the “% Activity” value was found to be 77%.
Still for that read-out and setting: the value for `COC(=O)c1ccccc1NC(=O)Cn1c(S(=O)(=O)Cc2ccccc2)nc2ccccc21` [7398-1534] was 27%; that for `CCS(=O)(=O)c1nc2ccccc2n1CC(=O)Nc1ccccc1C(=O)OC` [7398-1618] was 156%.
With `CCc1nnc(NC(=O)CSc2nc(N)nc(SC)c2C#N)s1` [8001-8196], the “% activity Max. conc. 100 uM” value came out at 25%.
On to `O=C(c1ccccc1Br)N1C(=O)c2ccccc2S1(=O)=O` [8006-3826], for which the “% Activity” value was determined as 56%.
Turning to `C=C(CS)Nc1ccc(CCCCC)cc1` [8008-0525], the “% activity Max. conc. 100 uM” value is given as 48%.
Turning to `C=C(CN1c2ccccc2C(C)(C)C12C=Cc1c(ccc3ccccc13)C2)NC` (stereo not shown) [8008-8279], the “% activity Max. conc. 100 uM” value turned out to be 27%.
Take `COC(=O)CSc1ccc(C#N)c(SCC(=O)OC)c1` [8012-3471]: the “% Activity” value is reported as 23%.
Turning to `Cc1nc2sc(-c3nc4ccccc4[nH]3)c(N)c2c(C)c1Cl` [8012-5593], the “% activity Max. conc. 100 uM” value came to 59%.
As to `O=c1[nH]c2ccc(Cl)cc2c(-c2ccccc2)c1Nc1ccc(Oc2ccccc2)cc1` [8013-3307], the “% activity 20 uM” value is given as 24% and the “% activity Max. conc. 100 uM” value is reported as 86%.
For the molecule `N#Cc1c(N)oc(C2=CC=CC2)c1-c1ccco1` [8014-9229], the “% activity Max. conc. 100 uM” value stood at 48%.
Take `O=c1cc(O)c2sc3nc4c(cc3c2[nH]1)CCCCC4` [8018-3339]: the “% activity Max. conc. 100 uM” value came out at 75%.
In the case of `C=C1Nc2nc(OC(C)=O)c(C)c(C)c2S1` [8018-4551], the “% activity Max. conc. 100 uM” value turned out to be 197%.
With `COc1ccc(-c2nn3c(C)nnc3s2)cc1N` [8018-6508], the “% activity Max. conc. 100 uM” value came out at 18%.
On to `Cc1cc(C)c2c(N)c(-c3nnc(-c4ccccc4)o3)sc2n1` [8018-7776], for which the “% Activity” value is listed as 42%.
Consider `CC1=NCC(c2ccc(O)cc2O)=C1c1ccc(Cl)cc1` [8020-1200], for which the “% activity Max. conc. 100 uM” value was found to be 94%.
Take `CN(C)CCCN(C(=O)CCOc1ccccc1)c1nc2ccc(Cl)cc2s1` [B677-0564]: the “% Activity” value is reported as 28%.
Take `C=C(OC(C)CC)C1=C(C)NC2=C(C(=C)C(C(=C)OC)C(C)C2)C1c1ccc(N(CC)CC)cc1` (stereo not shown) [C142-0098]: the “% activity Max. conc. 100 uM” value is listed as 61%.
`COc1ccc(-c2csc3c(NN)ncnc23)cc1` [C201-1744]: the “% activity Max. conc. 100 uM” value came to 22%.
Take `C=S(=C)(c1cc(Cl)ccc1Cl)n1c(/C=C/c2ccc(SC)cc2)nc2ccccc21` [C381-0232]: the “% activity Max. conc. 100 uM” value was found to be 36%.
On the same count and under the same terms, as for `CCN1CCCC1CNC(=O)C1CCN(c2cc(C)nc3c(-c4ccc(Cl)cc4)c(C)nn23)CC1` (stereo not shown) [C535-0969], the figure is 29%.
Still for that read-out and setting: the value for `Cc1ccccc1CSc1ncc(Sc2ccccc2)c(C(=O)NCc2ccccc2)n1` [D506-0127] was 65%; that for `Cc1cc(NC(=O)CSc2nnc(-c3sc4ncccc4c3N)n2C)ccc1Cl` [D549-0050] was 47%.
As for `Cc1cc(Nc2ccc(NC(=O)Nc3ccc4c(c3)CCCO4)cc2)nc(NC2CCCCC2)n1` [D577-0290], the “% activity Max. conc. 100 uM” value was 22%.
On the same count and under the same terms, as for `CC[C@H]1O[C@@H](Cc2ccc3c(c2C)CC(=O)C(C)=C3C)[C@H](C)[C@@H](O)[C@H]1C` [D715-0292], the figure is 56%.
For the molecule `O=C(NCc1cccc(Cl)c1)c1noc2c1CSc1ccccc1-2` [E146-0990], the “% activity Max. conc. 100 uM” value was 137%.
With `CCOc1cccc2sc(N(CCN(C)C)C(=O)CCS(=O)(=O)c3ccccc3)nc12` [E676-1270], the “% Activity” value came to 61%.
Regarding `CN(C)CCN(C(=O)CCS(=O)(=O)c1ccccc1)c1nc2c(Cl)cccc2s1` [E676-1524], the “% Activity” value came out at 80%.
Take `COc1ccc(C)c2sc(N(CCN(C)C)C(=O)CCS(=O)(=O)c3ccccc3)nc12` [E676-2540]: the “% Activity” value stood at 59%.
The same measure, in the same setting: as for `CCN(CC)CCN(C(=O)CCS(=O)(=O)c1ccccc1)c1nc2c(C)cccc2s1` [E676-3810], the figure is 121%; as for `CCN(CC)CCN(C(=O)CCOc1ccccc1)c1nc2c(F)cccc2s1` [E676-4120], 60%.
On to `CCN(CC)CCN(C(=O)CCOc1ccccc1)c1nc2c(F)cc(F)cc2s1` [E676-5517], for which the “% Activity” value amounted to 38%.
Still for that read-out and setting: the value for `CN(C)CCCN(C(=O)CCS(=O)(=O)c1ccccc1)c1nc2ccc(F)cc2s1` [E677-0508] was 53%; that for `CN(C)CCCN(C(=O)CCOc1ccccc1)c1nc2ccc(Br)cc2s1` [E677-0691] was 28%.
Turning to `COc1cccc2sc(N(CCCN(C)C)C(=O)CCOc3ccccc3)nc12` [E677-1072], the “% Activity” value is 117%.
On the same count and under the same terms, the value for `COc1cccc2sc(N(CCCN(C)C)C(=O)CCSc3ccccc3)nc12` [E677-1137] was 111%; that for `COc1cccc2sc(N(CCCN(C)C)C(=O)CCS(=O)(=O)c3ccccc3)nc12` [E677-1143] was 111%.
Still for that read-out and setting: as for `CN(C)CCCN(C(=O)CCS(=O)(=O)c1ccccc1)c1nc2c(F)cccc2s1` [E677-1397], the figure is 95%; as for `Cc1ccc2sc(N(CCCN(C)C)C(=O)CCS(=O)(=O)c3ccccc3)nc2c1C` [E677-2159], 70%.
The same measure, in the same setting: as for `Cc1cc(C)c2sc(N(CCCN(C)C)C(=O)CCS(=O)(=O)c3ccccc3)nc2c1` [E677-2413], the figure is 115%.
With `C=C1Cc2ccc(C)cc2C2=C1C(c1ccc(F)cc1)=C(NCCOC)C2` [F025-0094], the “% activity Max. conc. 100 uM” value is recorded as 246%.
